The source made the active and inactive calls. The rule behind the calls is not given here.

For the series, the system named is GENE-TOX genotoxicity assays, various organisms and cells. In words: GENE-TOX mutagenicity studies. Particulars: for call: Assay Type: In vivo carcinogenicity studies.
Where [1] appears, read: Species/Cell Type: Bacillus subtilis (H17 vs M45), Assay Type: Rec-assay, spot test, DNA effects (bacterial DNA repair), Assay Code: REWT, Evaluation Type: Evaluation A (Pre-1980).
Where [2] appears, read: Species/Cell Type: Escherichia coli polA (W3119 vs P3478), Assay Type: Rec-assay, DNA effects (bacterial DNA repair), Assay Code: RE1T, Evaluation Type: Evaluation A (Pre-1980).
Where [3] appears, read: Species/Cell Type: Human diploid fibroblasts, Assay Type: Unscheduled DNA synthesis (UDS) in vitro, DNA effects, Assay Code: UDH-, Evaluation Type: Evaluation A (Pre-1980).
Where [4] appears, read: Species/Cell Type: Nonhuman, Assay Type: Sister-chromatid exchange (SCE) in vitro, Assay Code: SC2T, Evaluation Type: Evaluation B (Post-1980).
The mark [5] stands for this setting: Species/Cell Type: Saccharomyces cerevisiae, Assay Type: Mitotic recombination or gene conversion, Assay Code: YEH-, Evaluation Type: Evaluation A (Pre-1980).
Where [6] appears, read: Species/Cell Type: Human, Assay Type: Sister-chromatid exchange (SCE) in vitro, Assay Code: SC1T, Evaluation Type: Evaluation B (Post-1980).
Setting [7] is: Species/Cell Type: Nonhuman, Assay Code: CCG+, Evaluation Type: Evaluation A (Pre-1980).
[8] abbreviates: Species/Cell Type: Salmonella typhimurium (one or more of the five standard strains: TA98, TA100, TA1535, TA1537, and TA1538), Assay Type: Histidine reverse gene mutation, Ames assay, Assay Code: SAL+*, Activation: With metabolic activation, Evaluation Type: Evaluation A (Pre-1980).
Setting [9] is: Species/Cell Type: Salmonella typhimurium (one or more of the five standard strains: TA98, TA100, TA1535, TA1537, and TA1538), Assay Type: Histidine reverse gene mutation, Ames assay, Assay Code: SALT, Evaluation Type: Evaluation A (Pre-1980).
[10] abbreviates: Species/Cell Type: Saccharomyces cerevisiae, Assay Type: Reverse gene mutation, Assay Code: YERT, Evaluation Type: Evaluation A (Pre-1980).
Where [11] appears, read: Species/Cell Type: Nonhuman, Assay Code: CCG+L, Evaluation Type: Evaluation A (Pre-1980).
[12] abbreviates: Species/Cell Type: Chinese hamster lung (V79) cells, Assay Type: Forward gene mutation at the HPRT or ouabain locus, Assay Code: V79+, Evaluation Type: Evaluation A (Pre-1980).

As to `CCN(CCO)CCCNc1c2ccc(Cl)cc2nc2ccc(OC)nc12`, the mutagenic call (Species/Cell Type: Chinese hamster ovary (CHO) cells, Assay Type: Forward gene mutation at the HPRT locus, Assay Code: CHOT, Evaluation Type: Evaluation B (Post-1980)) was “no conclusion”.
Consider `CCOP(=S)(OCC)Oc1ccc(S(C)=O)cc1` (stereo not drawn), for which the mutagenic call under setting [1] is on record as “no conclusion”; the mutagenic call (Species/Cell Type: Drosophila melanogaster, Assay Type: Sex-linked recessive lethal gene mutation, Assay Code: SRL-, Evaluation Type: Evaluation A (Pre-1980)) was “inactive; negative”; the mutagenic call (Species/Cell Type: Escherichia coli WP2 UVRA, Assay Type: Tryptophan reverse gene mutation, Assay Code: WPU-*, Activation: With metabolic activation, Evaluation Type: Evaluation A (Pre-1980)) was “inactive; negative”; the mutagenic call under setting [2] was “no conclusion”; the mutagenic call under setting [3] is “inactive; negative”; the mutagenic call under setting [4] was “no conclusion”. In addition, the mutagenic call is, setting by setting: under setting [5], “inactive; negative”; (Species/Cell Type: Salmonella typhimurium (one or more of the five standard strains: TA98, TA100, TA1535, TA1537, and TA1538), Assay Type: Histidine reverse gene mutation, Ames assay, Assay Code: SAL-, Evaluation Type: Evaluation A (Pre-1980)) “inactive; negative”.
For `O=C(O)c1c(Cl)c(Cl)c(Cl)c(Cl)c1-c1c2cc(I)c(=O)c(I)c-2oc2c(I)c(O)c(I)cc12`, the mutagenic call is, setting by setting: under setting [1], “no conclusion”; (Species/Cell Type: Bacillus subtilis (H17 vs M45T), Assay Type: Rec-assay, spot test, DNA effects (bacterial DNA repair), Assay Code: REXT, Evaluation Type: Evaluation A (Pre-1980)) “no conclusion”; under setting [6], “no conclusion”; under setting [4], “no conclusion”; (Species/Cell Type: Saccharomyces cerevisiae, Assay Type: Mitotic recombination or gene conversion, Assay Code: YEC-, Evaluation Type: Evaluation A (Pre-1980)) “inactive; negative”.
Regarding `CCn1c2ccccc2c2cc(N)ccc21`, the call under setting [7] was “active; positive”.
`CC1(C)O[C@@H]1COc1c2occc2cc2ccc(=O)oc12`: the mutagenic call (Species/Cell Type: Human lymphocytes, Assay Type: Sister-chromatid exchange (SCE) in vitro, Assay Code: SCL+D, Dose Response: With dose response, Evaluation Type: Evaluation B (Post-1980)) was “active; positive” and the mutagenic call (Species/Cell Type: Human, Assay Type: Sister-chromatid exchange (SCE) in vitro, Assay Code: SC1+D, Dose Response: With dose response, Evaluation Type: Evaluation B (Post-1980)) is “active; positive”.
Turning to `CC(C)Nc1cccc2c1C(=O)c1ccccc1C2=O`, the mutagenic call under setting [8] was “active; positive”.
For `CN1CCC(=C2c3ccccc3C=Cc3ccccc32)CC1`, the mutagenic call under setting [9] is “no conclusion”.
`CCCCOC(=O)COc1cc(Cl)c(Cl)cc1Cl`: the mutagenic call (Species/Cell Type: Salmonella typhimurium, Serratia marcesens, Assay Type: Forward and reverse gene mutation, host-mediated assay, Assay Code: HM2T, Evaluation Type: Evaluation A (Pre-1980)) is “no conclusion”.
For the compound `CCNCCNc1ccc(CO)c2sc3cc(Cl)ccc3c(=O)c12`, under “Species/Cell Type: Mouse lymphoma (L5178Y) cells, Assay Type: Forward gene mutation at the thymidine kinase (TK) locus, chromosome aberrations, Assay Code: L51+, Evaluation Type: Evaluation A (Pre-1980)”, the mutagenic call is “active; positive”.
Turning to `S=C([S-])NCCNC(=S)[S-].[Zn+2]`, the mutagenic call runs as follows: under setting [3], “inactive; negative”; (Species/Cell Type: Saccharomyces cerevisiae, Assay Type: Mitotic recombination or gene conversion, Assay Code: YEC+, Evaluation Type: Evaluation A (Pre-1980)) “active; positive”; under setting [5], “inactive; negative”.
For `CCC(COS(C)(=O)=O)(COS(C)(=O)=O)COS(C)(=O)=O`, the mutagenic call (Species/Cell Type: Arabidopsis species, Assay Type: Gene mutation, Assay Code: ARM+, Evaluation Type: Evaluation A (Pre-1980)) is “active; positive”.
For the compound `Nc1ccc(N)c(Cl)c1`, the call (Species/Cell Type: Nonhuman, Assay Code: CCG-L, Evaluation Type: Evaluation A (Pre-1980)) is “inactive; negative”.
As for `O=C1CCC(=O)N1CN1CCOCC1`, the mutagenic call (Species/Cell Type: Arabidopsis species, Assay Type: Gene mutation, Assay Code: ARM-, Evaluation Type: Evaluation A (Pre-1980)) is “inactive; negative”.
As for `CN(C)Cc1cc(Br)ccc1OCC(=O)N/N=C/c1ccccc1`, the mutagenic call under setting [10] is on record as “no conclusion”.
Consider `CCCCCN(CCCC(=O)O)N=O`, for which, under setting [9], the mutagenic call was “no conclusion”.
Consider `FC(F)(Cl)Br`, for which the mutagenic call (Species/Cell Type: Mammalian polychromatic erythrocytes, Assay Type: Micronucleus test, chromosome aberrations, Assay Code: MNT-, Evaluation Type: Evaluation B (Post-1980)) was “inactive; negative”.
Take `Cl[Te](Cl)(Cl)Cl`: the mutagenic call (Species/Cell Type: Bacillus subtilis (H17 vs M45), Assay Type: Rec-assay, spot test, DNA effects (bacterial DNA repair), Assay Code: REW+, Evaluation Type: Evaluation A (Pre-1980)) is “active; positive”.
With `O=NN1CN2CN(C1)CN(N=O)C2`, the mutagenic call is, setting by setting: (Species/Cell Type: Mammalian polychromatic erythrocytes, Assay Type: Micronucleus test, chromosome aberrations, Assay Code: MNTT, Evaluation Type: Evaluation A (Pre-1980)) “no conclusion”; (Species/Cell Type: Mouse embryo (AKR/ME) cells, Assay Type: Cell transformation, Assay Code: CTK-, Evaluation Type: Evaluation A (Pre-1980)) “inactive; negative”; (Species/Cell Type: Nonhuman, Assay Type: Sister-chromatid exchange (SCE) in vitro, Assay Code: SC2+D, Dose Response: With dose response, Evaluation Type: Evaluation B (Post-1980)) “active; positive”.
For the compound `Cc1cccc2cc3c(ccc4ccccc43)cc12`, under setting [11], the call was “active; positive”. In addition, the mutagenic call was “active; positive” (Species/Cell Type: Nonhuman, Assay Type: Sister-chromatid exchange (SCE) in vitro, Assay Code: SC2+, Evaluation Type: Evaluation B (Post-1980)); “active; positive” under setting [8]; “inactive; negative” (Species/Cell Type: Syrian hamster embryo (SHE) cells, Assay Type: Cell transformation, clonal assay, Assay Code: CTC-, Evaluation Type: Evaluation A (Pre-1980)).
With `Cc1cc(O)c2c(c1)C(=O)c1cc(O)cc(O)c1C2=O`, the mutagenic call reads like this: (Species/Cell Type: Bacillus subtilis (H17 vs M45), Assay Type: Rec-assay, spot test, DNA effects (bacterial DNA repair), Assay Code: REW-, Evaluation Type: Evaluation A (Pre-1980)) “inactive; negative”; under setting [2], “no conclusion”.
Consider `O=C(O)C1CCCCN1[N+](=O)[O-]` (stereo not drawn), for which the mutagenic call under setting [9] is “no conclusion”.
Take `OCCN1CCN(CCCN2c3ccccc3Sc3ccc(C(F)(F)F)cc32)CC1`: the mutagenic call (Species/Cell Type: Mammalian polychromatic erythrocytes, Assay Type: Micronucleus test, chromosome aberrations, Assay Code: MNT+, Evaluation Type: Evaluation B (Post-1980)) was “active; positive”.
For `COC(=O)CN(CC(=O)OC)C1C[C@H]1N(CC(=O)OC)CC(=O)OC` (stereo partly drawn), the mutagenic call under setting [12] is “active; positive”.
As for `NC(=O)CCl`, the mutagenic call (Species/Cell Type: Syrian hamster embryo (SA7/SHE) cells, Assay Type: Cell transformation, viral enhanced, Assay Code: CT7+, Evaluation Type: Evaluation A (Pre-1980)) was “active; positive”.
On to `Nc1cc([N+](=O)[O-])ccc1C(=O)O`, for which, under “Species/Cell Type: Nonhuman, Assay Code: CCG-, Evaluation Type: Evaluation A (Pre-1980)”, the call is “inactive; negative”.
As for `CC(=O)Nc1c(I)c(NC(C)=O)c(I)c(C(=O)O)c1I`, the mutagenic call (Species/Cell Type: Human lymphocytes, Assay Type: Sister-chromatid exchange (SCE) in vitro, Assay Code: SCLT, Evaluation Type: Evaluation B (Post-1980)) is on record as “no conclusion” and the mutagenic call under setting [6] is given as “no conclusion”.
As to `CCCCCCCCCCCCCCCCCCN(CCO)CCCN(CCO)CCO`, for the setting “Species/Cell Type: Mammalian polychromatic erythrocytes, Assay Type: Micronucleus test, chromosome aberrations, Assay Code: MNTT, Evaluation Type: Evaluation B (Post-1980)”, the mutagenic call is “no conclusion”.
Turning to `O=[N+]([O-])O.O=[N+]([O-])O.[Cd+2]`, for the setting “Species/Cell Type: Nonhuman, Assay Type: Sister-chromatid exchange (SCE) in vitro, Assay Code: SC2-, Evaluation Type: Evaluation B (Post-1980)”, the mutagenic call was “inactive; negative”.
As for `[CH3][Hg+]`, the mutagenic call runs as follows: (Species/Cell Type: Allium cepa, Assay Type: Chromosome aberrations, Assay Code: ALC+D, Dose Response: With dose response, Evaluation Type: Evaluation A (Pre-1980)) “active; positive”; (Species/Cell Type: Drosophila melanogaster, Assay Type: Aneuploidy, sex chromosome gain, chromosome aberrations, Assay Code: DAG+M+F, Evaluation Type: Evaluation A (Pre-1980)) “active; positive”; (Species/Cell Type: Drosophila melanogaster, Assay Type: Aneuploidy, whole sex chromosome loss, chromosome aberrations, Assay Code: DAC+M+F, Evaluation Type: Evaluation A (Pre-1980)) “active; positive”.
On to `CN(C)Cc1cc(Br)ccc1OCC(=O)NN`, for which the mutagenic call under setting [10] is recorded as “no conclusion”.
Consider `Cc1ccc(OC(=O)N(C)N=O)cc1C`, for which the mutagenic call by setting is: (Species/Cell Type: Bacillus subtilis (H17 vs M45T), Assay Type: Rec-assay, spot test, DNA effects (bacterial DNA repair), Assay Code: REX+, Evaluation Type: Evaluation A (Pre-1980)) “active; positive”; (Species/Cell Type: Escherichia coli WP2, Assay Type: Tryptophan reverse gene mutation, Assay Code: WP2+, Evaluation Type: Evaluation A (Pre-1980)) “active; positive”.
For the compound `[O]=[Cd]`, the call under setting [7] is “active; positive”.
With `Cc1c2ccccc2c(CO)c2c3c(ccc12)[C@@H](O)[C@H](O)C=C3`, the mutagenic call under setting [12] is “active; positive”. Further, the call under setting [11] was “active; positive”.

The record behind these values is PubChem BioAssay AID1259408 (Genetic Toxicology Data Bank (GENE-TOX), 2018).
